Source: patent US7060721B1, “Imidazole compounds and medicinal use thereof” (Fujisawa Pharmaceutical Co., Ltd., priority 1998, dated 2006)
Each block holds one compound with its values, some of them ahead of it.

SMILES: CCCCCS(=O)(=O)NC(=O)/C=C/c1c(Cl)nc(C)n1Cc1ccc(/C=C/c2ccccc2)cc1Cl [Example 41, (E)-3-(4-chloro-1-(2-chloro-4-((E)-2-phenylethenyl)benzyl)-2-methylimidazol-5-yl)-N-(1-pentanesulfonyl)-2-propenamide]
melting point: 215 to 216 °C

SMILES: CCC/C=C/S(=O)(=O)NC(=O)/C=C/c1c(Cl)nc(C)n1Cc1ccc(/C=C/c2ccccc2)cc1Cl [Example 42, (E)-3-(4-chloro-1-(2-chloro-4-((E)-2-phenylethenyl)benzyl)-2-methylimidazol-5-yl)-N-((E)-1-penten-1-ylsulfonyl)-2-propenamide]
melting point: 226 to 228 °C

SMILES: CCC/C=C/S(=O)(=O)NC(=O)/C=C/c1c(Cl)nc(C)n1Cc1ccc(NC(=O)OC(C)(C)C)cc1Cl [Example 50, (E)-3-(1-(4-(tert-butoxycarbonylamino)-2-chlorobenzyl)-4-chloro-2-methylimidazol-5-yl)-N-((E)-1-penten-1-ylsulfonyl)-2-propenamide]
melting point: 209 to 210 °C

SMILES: CCCCCS(=O)(=O)NC(=O)/C=C/c1c(Cl)nc(C)n1Cc1ccc(OCC2CCCC2)cc1Cl [Example 19, (E)-3-(4-chloro-1-(2-chloro-4-((cyclopentyl)methyloxy)benzyl)-2-methylimidazol-5-yl)-N-(1-pentanesulfonyl)-2-propenamide]
melting point: 177 to 178 °C

SMILES: CCC/C=C/S(=O)(=O)NC(=O)/C=C/c1c(Cl)nc(CC)n1Cc1ccc(/C=C/c2ccccc2)cc1Cl [Example 63, (E)-3-(4-chloro-1-(2-chloro-4-((E)-2-phenylethenyl)benzyl)-2-ethylimidazol-5-yl)-N-((E)-1-penten-1-ylsulfonyl)-2-propenamide]
melting point: 197 to 200 °C

SMILES: CCCCS(=O)(=O)NC(=O)/C=C/c1c(Cl)nc(CC)n1Cc1ccc(/C=C/c2ccccc2)cc1Cl [Example 61, (E)-N-(1-butanesulfonyl)-3-(4-chloro-1-(2-chloro-4-((E)-2-phenylethenyl)benzyl)-2-ethylimidazol-5-yl)-2-propenamide]
melting point: 210 to 213 °C

SMILES: CCc1nc(Cl)c(/C=C/C(=O)NS(=O)(=O)c2ccc(C)cc2)n1Cc1ccc(/C=C/c2ccccc2)cc1Cl [Example 60, (E)-3-(4-chloro-1-(2-chloro-4-((E)-2-phenylethenyl)benzyl)-2-ethylimidazol-5-yl)-N-(4-methylbenzenesulfonyl)-2-propenamide]
melting point: 250 to 252 °C

SMILES: Cc1nc(Cl)c(/C=C/C(=O)NS(=O)(=O)/C=C/c2ccccc2)n1Cc1ccc(OCC2CCCCC2)cc1Cl [Example 23, (2E)-3-(4-chloro-1-(2-chloro-4-((cyclohexyl)methyloxy)benzyl)-2-methylimidazol-5-yl)-N-(((E)-2-phenylethenyl)sulfonyl)-2-propenamide]
melting point: 210 to 212 °C

SMILES: Cc1nc(C)n(Cc2ccc(Br)cc2Cl)c1/C=C/C(=O)NS(=O)(=O)/C=C/c1ccccc1 [Example 64, (E)-3-(1-(4-bromo-2-chlorobenzyl)-2,4-dimethylimidazol-5-yl)-N-((E)-2-phenylethenesulfonyl)-2-propenamide]
melting point: 251 to 253 °C

SMILES: CCCCCS(=O)(=O)NC(=O)/C=C/c1c(Cl)nc(CC)n1Cc1ccc(C#Cc2ccccc2)cc1Cl [Example 57, (E)-3-(4-chloro-1-(2-chloro-4-(phenylethynyl)benzyl)-2-ethylimidazol-5-yl)-N-(1-pentanesulfonyl)-2-propenamide]
melting point: 161 to 163 °C

SMILES: CCCCCS(=O)(=O)NC(=O)/C=C/c1c(Cl)nc(C)n1Cc1ccc(-c2ccccc2)cc1Cl [Example 9, (E)-3-[4-chloro-1-(2-chloro-4-phenylbenzyl)-2-methylimidazol-5-yl]-N-(1-pentanesulfonyl)-2-propenamide]
melting point: 203 to 204 °C

The next lines start with the values.

melting point: 225 to 227 °C
SMILES: Cc1nc(Cl)c(/C=C/C(=O)NS(=O)(=O)/C=C/c2ccccc2)n1Cc1ccc(OCc2ccccc2)cc1Cl [Example 25, (E)-3-(1-(4-benzyloxy-2-chlorobenzyl)-4-chloro-2-methylimidazol-5-yl)-N-(((E)-2-phenylethenyl)sulfonyl)-2-propenamide]

melting point: 250 to 251 °C
SMILES: Cc1nc(Cl)c(/C=C/C(=O)NS(=O)(=O)/C=C/c2ccccc2)n1Cc1ccc(Br)cc1Cl [Example 8, (E)-3-(1-(4-bromo-2-chlorobenzyl)-4-chloro-2-methylimidazol-5-yl)-N-(((E)-2-phenylethenyl)sulfonyl)-2-propenamide]

melting point: 227 to 228 °C
SMILES: Cc1nc(Cl)c(/C=C/C(=O)NS(=O)(=O)/C=C/c2ccccc2)n1Cc1ccc(-c2ccco2)cc1Cl [Example 2, (2E)-3-(4-chloro-1-(2-chloro-4-(2-furyl)benzyl)-2-methylimidazol-5-yl)-N-(((E)-2-phenylethenyl)sulfonyl)-2-propenamide]

melting point: 240 to 241 °C
SMILES: Cc1nc(Cl)c(/C=C/C(=O)NS(=O)(=O)/C=C/c2ccccc2)n1Cc1ccc(-c2ccccc2)cc1Cl [Example 12, (E)-3-(4-chloro-1-(2-chloro-4-phenylbenzyl)-2-methylimidazol-5-yl)-N-(((E)-2-phenylethenyl)sulfonyl)-2-propenamide]

melting point: 220 to 222 °C
SMILES: Cc1nc(Cl)c(/C=C/C(=O)NS(=O)(=O)/C=C/c2ccccc2)n1Cc1ccc(C#Cc2ccccc2)cc1Cl [Example 6, (2E)-3-(4-chloro-1-(2-chloro-4-(phenylethynyl)benzyl)-2-methylimidazol-5-yl)-N-(((E)-2-phenylethenyl)sulfonyl)-2-propenamide]

melting point: 196 to 199 °C
SMILES: CCCCCOc1ccc(Cn2c(C)nc(Cl)c2/C=C/C(=O)NS(=O)(=O)/C=C/c2ccccc2)c(Cl)c1 [Example 18, (E)-3-(4-chloro-1-(2-chloro-4-(1-pentyloxy)benzyl)-2-methylimidazol-5-yl)-N-(((E)-2-phenylethenyl)sulfonyl)-2-propenamide]

melting point: 230 to 232 °C
SMILES: Cc1nc(Cl)c(/C=C/C(=O)NS(=O)(=O)/C=C/c2ccccc2)n1Cc1ccc(/C=C/c2ccccc2)cc1Cl [Example 35, (E)-3-(4-chloro-1-(2-chloro-4-((E)-2-phenylethenyl)benzyl)-2-methylimidazol-5-yl)-N-(((E)-2-phenylethenyl)sulfonyl)-2-propenamide]

melting point: 245 to 247 °C
SMILES: Cc1nc(Cl)c(/C=C/C(=O)NS(=O)(=O)c2ccccc2)n1Cc1ccc(-c2ccccc2)cc1Cl [Example 10, (E)-N-benzenesulfonyl-3-[4-chloro-1-(2-chloro-4-phenylbenzyl)-2-methylimidazol-5-yl]-2-propenamide]

melting point: 233 to 234 °C
SMILES: CCc1nc(Cl)c(/C=C/C(=O)NS(=O)(=O)/C=C/c2ccccc2)n1Cc1ccc(C#Cc2ccccc2)cc1Cl [Example 54, (E)-3-(4-chloro-1-(2-chloro-4-(phenylethynyl)benzyl)-2-ethylimidazol-5-yl)-N-((E)-2-phenylethenesulfonyl)-2-propenamide]

melting point: 202 to 203 °C
SMILES: Cc1nc(Cl)c(/C=C/C(=O)NS(=O)(=O)/C=C/c2ccccc2)n1Cc1ccc(COc2ccccc2)cc1Cl [Example 31, (E)-3-(4-chloro-1-(2-chloro-4-(phenoxymethyl)benzyl)-2-methylimidazol-5-yl)-N-(((E)-2-phenylethenyl)sulfonyl)-2-propenamide]
